Each molecule was assayed on OCI-LY10 cells (assay: Cell proliferation assay (MTS) in OCI-LY10 cells). Settings: Homo sapiens; inhibition of OCI-LY10 cells proliferation, 72 h incubation, MTS, absorbance at 490 nm; read-out: OCI-LY10 IC50.
Assay type: cell-based
Text: MTS testing kit was purchased from Promega (Madison, Wis., USA). The RPMI-1640, Fetal bovine serum and Penicillin-Streptomycin were purchased from BI (Biological Industries, Beit Haemek, Israel). Dimethyl sulfoxide (DMSO) was purchased from Sigma (St. Louis., Mo., USA). […] To investigate whether a compound is able to inhibit the activity of BTK in cells, a mechanism-based assay using OCI-LY10 cells was developed. In this assay, inhibition of BTK was detected by the inhibition of OCI-LY10 cells proliferation. Cells were plated into 96-well plates at a density of 10000 cells/well. Plates were incubated at 37° C., with 5% CO2 for 4 h. […] Plates were incubated at 37° C., with 5% CO2 for 72 h. 20 μl MTS was added into each well and the plates were incubated at 37° C., with 5% CO2 for exactly 2 h. The absorbance was measured by a microplate reader at 490 nm. IC50 was calculated using GraphPad Prism 5.0 software. Select compounds prepared as described above were assayed according to the biological procedures described herein.

Row | IC50 | Structure (SMILES)
1 | 35 nM | COc1ccc(F)cc1C(=O)NCc1ccc(-c2cn(C3CCCC3(C)O)c3c(=O)[nH]nc(N)c23)cc1 (stereo not shown) [Example 38, N-(4-(4-amino-1-(2-hydroxy-2-methylcyclopentyl)-7-oxo-6,7-dihydro-1H-pyrrolo[2,3-d]pyridazin-3-yl)benzyl)-5-fluoro-2-methoxybenzamide]
2 | 1 nM | COc1ccc(F)cc1C(=O)NCc1ccc(-c2nn([C@H]3CCC[C@@H]3F)c3c(=O)[nH]nc(N)c23)cc1 [Example 80, N-(4-(4-amino-1-((1S,2S)-2-fluorocyclopentyl)-7-oxo-6,7-dihydro-1H-pyrazolo[3,4-d]pyridazin-3-yl)benzyl)-5-fluoro-2-methoxybenzamide]
3 | 32 nM | COc1ccc(F)cc1C(=O)NCc1ccc(-c2cn(C3CCCC3)c3c(=O)[nH]nc(N)c23)cn1 [Example 45, N-((5-(4-amino-1-cyclopentyl-7-oxo-6,7-dihydro-1H-pyrrolo[2,3-d]pyridazin-3-yl)pyridin-2-yl)methyl)-5-fluoro-2-methoxybenzamide]
4 | 24 nM | COc1ccc(F)cc1C(=O)NCc1ccc(-n2nc(CC3CC3)c3c(=O)[nH]nc(N)c32)cc1 [Example 93, N-(4-(7-amino-3-(cyclopropylmethyl)-4-oxo-4,5-dihydro-1H-pyrazolo[3,4-d]pyridazin-1-yl)benzyl)-5-fluoro-2-methoxybenzamide]
5 | 65 nM | COc1ccc(F)cc1C(=O)NCc1ccc(-n2nc(C3CC3(F)F)c3c(=O)[nH]nc(N)c32)cc1 (stereo not shown) [Example 99, N-(4-(7-amino-3-(2,2-difluorocyclopropyl)-4-oxo-4,5-dihydro-1H-pyrazolo[3,4-d]pyridazin-1-yl)benzyl)-5-fluoro-2-methoxybenzamide]
6 | 1 nM | COc1ccc(F)cc1C(=O)NCc1ccc(-c2nn(C3CCC3)c3c(=O)[nH]nc(N)c23)cc1 [Example 65, N-(4-(4-amino-1-cyclobutyl-7-oxo-6,7-dihydro-1H-pyrazolo[3,4-d]pyridazin-3-yl)benzyl)-5-fluoro-2-methoxybenzamide]
7 | 1 nM | COc1ccc(F)cc1C(=O)NCc1ccc(-c2cn(C3CCCCC3)c3c(=O)[nH]nc(N)c23)cc1 [Example 35, N-(4-(4-amino-1-cyclohexyl-7-oxo-6,7-dihydro-1H-pyrrolo[2,3-d]pyridazin-3-yl)benzyl)-5-fluoro-2-methoxybenzamide]
8 | 1 nM | COc1ccc(F)cc1C(=O)NCc1ccc(-c2nn(C(C)C(C)(C)C)c3c(=O)[nH]nc(N)c23)cc1 (stereo not shown) [Example 70, N-(4-(4-amino-1-(3,3-dimethylbutan-2-yl)-7-oxo-6,7-dihydro-1H-pyrazolo[3,4-d]pyridazin-3-yl)benzyl)-5-fluoro-2-methoxybenzamide]
9 | 12 nM | COc1ccc(F)cc1C(=O)NCc1ccc(-c2nn(C(C)CF)c3c(=O)[nH]nc(N)c23)cc1 (stereo not shown) [Example 75, N-(4-(4-amino-1-(1-fluoropropan-2-yl)-7-oxo-6,7-dihydro-1H-pyrazolo[3,4-d]pyridazin-3-yl)benzyl)-5-fluoro-2-methoxybenzamide]
10 | 4 nM | COc1ccc(F)cc1C(=O)NCc1ccc(-c2cn([C@@H]3CCN(C(=O)OC(C)C)C3)c3c(=O)[nH]nc(N)c23)cc1 [Example 105, isopropyl (R)-3-(4-amino-3-(4-((5-fluoro-2-methoxybenzamido)methyl)phenyl)-7-oxo-6,7-dihydro-1H-pyrrolo[2,3-d]pyridazin-1-yl)pyrrolidine-1-carboxylate]
11 | 1 nM | COc1ccc(F)cc1C(=O)NCc1ccc(-c2cn(C3CCCC3)c3c(=O)[nH]nc(N)c23)c(F)c1 [Example 31, N-(4-(4-amino-1-cyclopentyl-7-oxo-6,7-dihydro-1H-pyrrolo[2,3-d]pyridazin-3-yl)-3-fluorobenzyl)-5-fluoro-2-methoxybenzamide]
12 | 83 nM | COc1ccc(F)cc1C(=O)NCc1ccc(-c2nn([C@H](C)C(F)(F)F)c3c(=O)[nH]nc(N)c23)cc1 [Example 40b, (R)-N-(4-(4-amino-7-oxo-1-(1,1,1-trifluoropropan-2-yl)-6,7-dihydro-1H-pyrazolo[3,4-d]pyridazin-3-yl)benzyl)-5-fluoro-2-methoxybenzamide]
13 | 3 nM | COc1ccc(F)cc1C(=O)NCc1ccc(-c2nn(C3(CF)CC3)c3c(=O)[nH]nc(N)c23)cc1 [Example 82, N-(4-(4-amino-1-(1-(fluoromethyl)cyclopropyl)-7-oxo-6,7-dihydro-1H-pyrazolo[3,4-d]pyridazin-3-yl)benzyl)-5-fluoro-2-methoxybenzamide]
14 | 1 nM | COc1ccc(F)cc1C(=O)NCc1ccc(-n2nc(C3CCCC3)c3c(=O)[nH]nc(N)c32)cc1 [Example 16, N-(4-(7-amino-3-cyclopentyl-4-oxo-4,5-dihydro-1H-pyrazolo[3,4-d]pyridazin-1-yl)benzyl)-5-fluoro-2-methoxybenzamide]
15 | 1 nM | COc1ccc(F)cc1C(=O)NCc1ccc(-c2nn(C(C)(C)C)c3c(=O)[nH]nc(N)c23)cc1 [Example 66, N-(4-(4-amino-1-(tert-butyl)-7-oxo-6,7-dihydro-1H-pyrazolo[3,4-d]pyridazin-3-yl)benzyl)-5-fluoro-2-methoxybenzamide]
16 | 46 nM | COc1ccc(F)cc1C(=O)NCc1ccc(-c2nn(C(C)(C)CF)c3c(=O)[nH]nc(N)c23)cc1 [Example 83, N-(4-(4-amino-1-(1-fluoro-2-methylpropan-2-yl)-7-oxo-6,7-dihydro-1H-pyrazolo[3,4-d]pyridazin-3-yl)benzyl)-5-fluoro-2-methoxybenzamide]
17 | 44 nM | COc1ccc(F)cc1C(=O)NCc1ccc(-n2c(=O)n(C3CCCC3)c3ccnc(N)c32)cc1 [Example 22, N-(4-(4-amino-1-cyclopentyl-2-oxo-1,2-dihydro-3H-imidazo[4,5-c]pyridin-3-yl)benzyl)-5-fluoro-2-methoxybenzamide]
18 | 1 nM | COc1ccc(F)cc1C(=O)NCc1ccc(-c2cn(C3CC(F)(F)C3)c3c(=O)[nH]nc(N)c23)cc1 [Example 54, N-(4-(4-amino-1-(3,3-difluorocyclobutyl)-7-oxo-6,7-dihydro-1H-pyrrolo[2,3-d]pyridazin-3-yl)benzyl)-5-fluoro-2-methoxybenzamide]
19 | 1 nM | COc1ccc(F)cc1C(=O)NCc1ccc(-c2nn(C3(C)CC3)c3c(=O)[nH]nc(N)c23)cc1 [Example 74, N-(4-(4-amino-1-(1-methylcyclopropyl)-7-oxo-6,7-dihydro-1H-pyrazolo[3,4-d]pyridazin-3-yl)benzyl)-5-fluoro-2-methoxybenzamide]
20 | 1 nM | COc1ccc(F)cc1C(=O)NCc1ccc(-c2nn([C@@H](CF)C3CC3)c3c(=O)[nH]nc(N)c23)cc1 [Example 88, (R)-N-(4-(4-amino-1-(1-cyclopropyl-2-fluoroethyl)-7-oxo-6,7-dihydro-1H-pyrazolo[3,4-d]pyridazin-3-yl)benzyl)-5-fluoro-2-methoxybenzamide]
21 | 4 nM | COc1ccc(F)cc1C(=O)NCc1ccc(-c2cn(C3CC3)c3c(=O)[nH]nc(N)c23)cc1 [Example 34, N-(4-(4-amino-1-cyclopropyl-7-oxo-6,7-dihydro-1H-pyrrolo[2,3-d]pyridazin-3-yl)benzyl)-5-fluoro-2-methoxybenzamide]
22 | 19 nM | COc1ccc(F)cc1C(=O)NCc1ccc(-c2cn([C@@H]3CCN(S(C)(=O)=O)C3)c3c(=O)[nH]nc(N)c23)cc1 [Example 50, (R)-N-(4-(4-amino-1-(1-(methylsulfonyl)pyrrolidin-3-yl)-7-oxo-6,7-dihydro-1H-pyrrolo[2,3-d]pyridazin-3-yl)benzyl)-5-fluoro-2-methoxybenzamide]
23 | 3 nM | COc1ccc(F)cc1C(=O)NCc1ccc(-c2cn(C(C)C(F)(F)F)c3c(=O)[nH]nc(N)c23)cc1F (stereo not shown) [Example 53, N-(4-(4-amino-7-oxo-1-(1,1,1-trifluoropropan-2-yl)-6,7-dihydro-1H-pyrrolo[2,3-d]pyridazin-3-yl)-2-fluorobenzyl)-5-fluoro-2-methoxybenzamide]
24 | 1 nM | COc1ccc(F)cc1C(=O)NCc1ccc(-c2nn([C@H]3CCCC3(F)F)c3c(=O)[nH]nc(N)c23)cc1 [Example 64, (S)-N-(4-(4-amino-1-(2,2-difluorocyclopentyl)-7-oxo-6,7-dihydro-1H-pyrazolo[3,4-d]pyridazin-3-yl)benzyl)-5-fluoro-2-methoxybenzamide]
25 | 1 nM | C=CC(=O)N1CC[C@@H](n2cc(-c3ccc(CNC(=O)c4cc(F)ccc4OC)cc3)c3c(N)n[nH]c(=O)c32)C1 [Example 109, (R)-N-(4-(1-(1-acryloylpyrrolidin-3-yl)-4-amino-7-oxo-6,7-dihydro-1H-pyrrolo [2,3-d]pyridazin-3-yl)benzyl)-5-fluoro-2-methoxybenzamide]
26 | 1 nM | COc1ccc(F)cc1C(=O)NCc1ccc(-c2nn(C(C)C(F)F)c3c(=O)[nH]nc(N)c23)cc1 (stereo not shown) [Example 76, N-(4-(4-amino-1-(1,1-difluoropropan-2-yl)-7-oxo-6,7-dihydro-1H-pyrazolo [3,4-d]pyridazin-3-yl)benzyl)-5-fluoro-2-methoxybenzamide]
27 | 1 nM | CCC(C)n1nc(-c2ccc(CNC(=O)c3cc(F)ccc3OC)cc2)c2c(N)n[nH]c(=O)c21 (stereo not shown) [Example 67, N-(4-(4-amino-1-(sec-butyl)-7-oxo-6,7-dihydro-1H-pyrazolo[3,4-d]pyridazin-3-yl)benzyl)-5-fluoro-2-methoxybenzamide]
28 | 5 nM | COc1ccc(F)cc1C(=O)NCc1ccc(-c2nn(C(C)C(C)C)c3c(=O)[nH]nc(N)c23)cc1 (stereo not shown) [Example 69, N-(4-(4-amino-1-(3-methylbutan-2-yl)-7-oxo-6,7-dihydro-1H-pyrazolo[3,4-d]pyridazin-3-yl)benzyl)-5-fluoro-2-methoxybenzamide]
